Laboratory results from PMC9516332 (Frontiers in Oncology, 2022).
Read-outs that look alike come from different tables or passages of the source.

Legend:
[1] = target: T1, panel of 255 wild-type kinases (Homo sapiens, UniProt Q9BZL6); assay: Kinase panel profiling at 1 µmol/L (MSA or IMAP), percentage inhibition; format: biochemical; conditions: kinase PKD2; 1 µmol/L single concentration; read-out: %-inhibition at 1 µmol/L, PKD2
T1 sequence (Q9BZL6 1-878): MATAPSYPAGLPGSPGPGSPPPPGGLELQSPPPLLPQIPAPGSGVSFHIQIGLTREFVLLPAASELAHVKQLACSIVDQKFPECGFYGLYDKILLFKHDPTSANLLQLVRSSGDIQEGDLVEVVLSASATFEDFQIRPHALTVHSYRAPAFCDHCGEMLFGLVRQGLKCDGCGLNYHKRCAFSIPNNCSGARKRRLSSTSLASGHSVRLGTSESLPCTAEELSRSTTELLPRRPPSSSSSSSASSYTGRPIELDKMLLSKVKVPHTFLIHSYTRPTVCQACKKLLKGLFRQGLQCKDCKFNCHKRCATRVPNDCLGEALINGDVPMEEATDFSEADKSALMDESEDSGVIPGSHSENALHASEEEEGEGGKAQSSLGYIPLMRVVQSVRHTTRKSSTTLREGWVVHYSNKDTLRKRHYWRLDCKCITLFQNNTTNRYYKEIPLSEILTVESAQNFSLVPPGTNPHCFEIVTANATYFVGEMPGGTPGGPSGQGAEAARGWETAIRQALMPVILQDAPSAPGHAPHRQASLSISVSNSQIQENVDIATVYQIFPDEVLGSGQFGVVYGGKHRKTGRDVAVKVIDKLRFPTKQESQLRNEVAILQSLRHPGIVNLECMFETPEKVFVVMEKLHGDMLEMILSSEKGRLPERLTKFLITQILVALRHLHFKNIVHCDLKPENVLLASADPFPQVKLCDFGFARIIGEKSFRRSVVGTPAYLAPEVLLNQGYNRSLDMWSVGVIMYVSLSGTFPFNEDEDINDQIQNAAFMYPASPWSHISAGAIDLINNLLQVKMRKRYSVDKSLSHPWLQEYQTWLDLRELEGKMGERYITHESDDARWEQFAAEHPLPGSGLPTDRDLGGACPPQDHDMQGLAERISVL

134 cancer cell lines = assay: Cell viability assay (ATPlite, 72 hours), IC50 on cancer cell line panel

SMILES: CCN1CCN(c2ccc(Nc3cc(N(C)C(=O)Nc4c(Cl)c(OC)cc(OC)c4Cl)ncn3)cc2)CC1 [infigratinib]
- inhibition at 1 µM [1]: -4.21%
- IC50 (134 cancer cell lines; HEC-6, read-out: IC50 in cell proliferation assay, HEC-6 cell line (EGFR p.A289V)): > 3.16 µM
- IC50 (134 cancer cell lines; Homo sapiens, 769-P, read-out: IC50 in cell proliferation assay, cell line 769-P): > 3.16 µM
- IC50 (134 cancer cell lines; Homo sapiens, 786-0, read-out: IC50 in cell proliferation assay, cell line 786-O): > 3.16 µM
- IC50 (134 cancer cell lines; Homo sapiens, A 172, read-out: IC50 in cell proliferation assay, cell line A-172): 0.041 µM
- IC50 (134 cancer cell lines; Homo sapiens, A204, read-out: IC50 in cell proliferation assay, cell line A-204): 0.063 µM
- IC50 (134 cancer cell lines; Homo sapiens, A498, read-out: IC50 in cell proliferation assay, cell line A-498): 2.97 µM
- IC50 (134 cancer cell lines; Homo sapiens, A549, read-out: IC50 in cell proliferation assay, cell line A-549): > 3.16 µM
- IC50 (134 cancer cell lines; Homo sapiens, A704, read-out: IC50 in cell proliferation assay, cell line A-704): > 3.16 µM
- IC50 (134 cancer cell lines; Homo sapiens, A-375, read-out: IC50 in cell proliferation assay, cell line A-375 (BRAF p.V600E)): > 3.16 µM
- IC50 (134 cancer cell lines; Homo sapiens, A-427, read-out: IC50 in cell proliferation assay, cell line A-427): 1.79 µM
- IC50 (134 cancer cell lines; Homo sapiens, ACHN, read-out: IC50 in cell proliferation assay, cell line ACHN): 2.75 µM
- IC50 (134 cancer cell lines; Homo sapiens, AN3-CA, read-out: IC50 in cell proliferation assay, cell line AN3-CA (FGFR2 p.N549K)): 0.203 µM
- IC50 (134 cancer cell lines; Homo sapiens, ASPC1, read-out: IC50 in cell proliferation assay, cell line AsPC-1): > 3.16 µM
- IC50 (134 cancer cell lines; Homo sapiens, AU565, read-out: IC50 in cell proliferation assay, cell line AU565 (ERBB2 amplification)): > 3.16 µM
- IC50 (134 cancer cell lines; Homo sapiens, BT-20, read-out: IC50 in cell proliferation assay, cell line BT-20): > 3.16 µM
- IC50 (134 cancer cell lines; Homo sapiens, BT-474, read-out: IC50 in cell proliferation assay, cell line BT-474 (ERBB2 amplification)): > 3.16 µM
- IC50 (134 cancer cell lines; Homo sapiens, BT-549, read-out: IC50 in cell proliferation assay, cell line BT-549): > 3.16 µM
- IC50 (134 cancer cell lines; Homo sapiens, BXPC-3, read-out: IC50 in cell proliferation assay, cell line BxPC-3): > 3.16 µM
- IC50 (134 cancer cell lines; Homo sapiens, C-33-A, read-out: IC50 in cell proliferation assay, cell line C-33 A): > 3.16 µM
- IC50 (134 cancer cell lines; Homo sapiens, CAL-27, read-out: IC50 in cell proliferation assay, cell line CAL-27): > 3.16 µM
- IC50 (134 cancer cell lines; Homo sapiens, CCF-STTG1, read-out: IC50 in cell proliferation assay, cell line CCF-STTG1): > 3.16 µM
- IC50 (134 cancer cell lines; Homo sapiens, CCRF-CEM, read-out: IC50 in cell proliferation assay, cell line CCRF-CEM): > 3.16 µM
- IC50 (134 cancer cell lines; Homo sapiens, COLO 205, read-out: IC50 in cell proliferation assay, cell line COLO 205 (BRAF p.V600E)): > 3.16 µM
- IC50 (134 cancer cell lines; Homo sapiens, COLO-829, read-out: IC50 in cell proliferation assay, cell line COLO 829 (BRAF p.V600E)): > 3.16 µM
- IC50 (134 cancer cell lines; Homo sapiens, DLD-1, read-out: IC50 in cell proliferation assay, cell line DLD-1): > 3.16 µM
- IC50 (134 cancer cell lines; Homo sapiens, DU-4475, read-out: IC50 in cell proliferation assay, cell line DU4475 (BRAF p.V600E)): > 3.16 µM
- IC50 (134 cancer cell lines; Homo sapiens, Daoy, read-out: IC50 in cell proliferation assay, cell line Daoy): > 3.16 µM
- IC50 (134 cancer cell lines; Homo sapiens, DoTc2-4510, read-out: IC50 in cell proliferation assay, cell line DoTc2 4510): > 3.16 µM
- IC50 (134 cancer cell lines; Homo sapiens, FaDu, read-out: IC50 in cell proliferation assay, cell line FaDu): > 3.16 µM
- IC50 (134 cancer cell lines; Homo sapiens, G-361, read-out: IC50 in cell proliferation assay, cell line G-361 (BRAF p.V600E)): > 3.16 µM
- IC50 (134 cancer cell lines; Homo sapiens, HCC827, read-out: IC50 in cell proliferation assay, cell line HCC827 (EGFR exon19del)): 5 µM
- IC50 (134 cancer cell lines; Homo sapiens, HCC4006, read-out: IC50 in cell proliferation assay, cell line HCC4006 (EGFR exon19del)): 6.22 µM
- IC50 (134 cancer cell lines; Homo sapiens, HCT-15, read-out: IC50 in cell proliferation assay, cell line HCT 15): > 3.16 µM
- IC50 (134 cancer cell lines; Homo sapiens, HCT-116, read-out: IC50 in cell proliferation assay, cell line HCT 116): > 3.16 µM
- IC50 (134 cancer cell lines; Homo sapiens, HEC-1, read-out: IC50 in cell proliferation assay, HEC-1 cell line): 3.04 µM
- IC50 (134 cancer cell lines; Homo sapiens, HEC-1B, read-out: IC50 in cell proliferation assay, HEC-1-B cell line (EGFR p.A864V)): > 3.16 µM
- IC50 (134 cancer cell lines; Homo sapiens, HL-60, read-out: IC50 in cell proliferation assay, HL-60 cell line): > 3.16 µM
- IC50 (134 cancer cell lines; Homo sapiens, HT, read-out: IC50 in cell proliferation assay, HT cell line): > 3.16 µM
- IC50 (134 cancer cell lines; Homo sapiens, HT-1080, read-out: IC50 in cell proliferation assay, HT-1080 cell line): 2.99 µM
- IC50 (134 cancer cell lines; Homo sapiens, Hs-578T, read-out: IC50 in cell proliferation assay, Hs 578T cell line): > 3.16 µM
- IC50 (134 cancer cell lines; Homo sapiens, HuTu80, read-out: IC50 in cell proliferation assay, HuTu 80 cell line): 0.039 µM
- IC50 (134 cancer cell lines; Homo sapiens, J82, read-out: IC50 in cell proliferation assay, J82 cell line): > 3.16 µM
- IC50 (134 cancer cell lines; Homo sapiens, Jurkat E6.1, read-out: IC50 in cell proliferation assay, Jurkat E6.1 cell line): > 3.16 µM
- IC50 (134 cancer cell lines; Homo sapiens, K562, read-out: IC50 in cell proliferation assay, K-562 cell line): > 3.16 µM
- IC50 (134 cancer cell lines; Homo sapiens, KATO III, read-out: IC50 in cell proliferation assay, KATO III cell line (FGFR2 amplification)): 0.008 µM
- IC50 (134 cancer cell lines; Homo sapiens, KG-1, read-out: IC50 in cell proliferation assay, KG-1 cell line (FGFR1OP2-FGFR1)): 0.00229 µM
- IC50 (134 cancer cell lines; Homo sapiens, KLE, read-out: IC50 in cell proliferation assay, KLE cell line): > 3.16 µM
- IC50 (134 cancer cell lines; Homo sapiens, KMS-11, read-out: IC50 in cell proliferation assay, KMS-11 cell line (FGFR3 p.Y373C)): 0.026 µM
- IC50 (134 cancer cell lines; Homo sapiens, KU812, read-out: IC50 in cell proliferation assay, Ku812 cell line): > 3.16 µM
- IC50 (134 cancer cell lines; Homo sapiens, Kasumi 1, read-out: IC50 in cell proliferation assay, Kasumi-1 cell line (KIT p.N822K)): 3.42 µM
- IC50 (134 cancer cell lines; Homo sapiens, LC-2-ad, read-out: IC50 in cell proliferation assay, LC-2/ad cell line (CCDC6-RET)): 3.45 µM
- IC50 (134 cancer cell lines; Homo sapiens, LNCaP-Clone-FGC, read-out: IC50 in cell proliferation assay, LNCaP clone FGC cell line): > 3.16 µM
- IC50 (134 cancer cell lines; Homo sapiens, LS174T, read-out: IC50 in cell proliferation assay, LS174T cell line): > 3.16 µM
- IC50 (134 cancer cell lines; Homo sapiens, LS-411N, read-out: IC50 in cell proliferation assay, LS411N cell line (BRAF p.V600E)): > 3.16 µM
- IC50 (134 cancer cell lines; Homo sapiens, LoVo, read-out: IC50 in cell proliferation assay, LoVo cell line): > 3.16 µM
- IC50 (134 cancer cell lines; Homo sapiens, MCF7, read-out: IC50 in cell proliferation assay, MCF-7 cell line): > 3.16 µM
- IC50 (134 cancer cell lines; Homo sapiens, MDA-MB-231, read-out: IC50 in cell proliferation assay, MDA-MB-231 cell line): > 3.16 µM
- IC50 (134 cancer cell lines; Homo sapiens, MDA-MB-453, read-out: IC50 in cell proliferation assay, MDA-MB-453 cell line): 0.655 µM
- IC50 (134 cancer cell lines; Homo sapiens, MDA-MB-468, read-out: IC50 in cell proliferation assay, MDA-MB-468 cell line): > 3.16 µM
- IC50 (134 cancer cell lines; Homo sapiens, MG-63, read-out: IC50 in cell proliferation assay, MG-63 cell line): 0.189 µM
- IC50 (134 cancer cell lines; Homo sapiens, MIA PaCa-2, read-out: IC50 in cell proliferation assay, MIA PaCa-2 cell line): > 3.16 µM
- IC50 (134 cancer cell lines; Homo sapiens, MKN-45, read-out: IC50 in cell proliferation assay, MKN45 cell line (MET amplification)): 4.26 µM
- IC50 (134 cancer cell lines; Homo sapiens, MOLM-13, read-out: IC50 in cell proliferation assay, MOLM-13 cell line (FLT3 ITD)): 3.99 µM
- IC50 (134 cancer cell lines; Homo sapiens, MOLT-4, read-out: IC50 in cell proliferation assay, MOLT-4 cell line): > 3.16 µM
